US7041698B2, “Hepatitis C virus inhibitors” (Bristol-Myers Squibb Company, priority 2002, dated 2006)
Where two headings read alike, the source gives them in different places.

Columns and labels:
[1] = biological target: T1, HCV NS3/4A protease complex (UniProt P27958, C1454S/C1711G, species not given); test: Recombinant HCV NS3/4A protease complex FRET peptide assay (strain not stated); assay type: biochemical
T1 construct: fused on or other part: Three-lysine solubilising tail at the C-terminus of NS4A

[2] = test system: HCV replicon in Huh7 cells; test: HCV replicon cell-based assay; set-up: species or system HCV strain 1B; details: Hepatitis C virus, Huh-7, 96 h, HCV replicon, 4 days, read-out: EC50 range
Excerpt: HCV Replicon Cell-based Assay
An HCV replicon whole cell system was established as described by Lohmann V, Komer F, Koch J, Herian U, Theilmann L, Bartenschlager R., Science 285(5424):110–3 (1999). This system enabled us to evaluate the effects of our HCV Protease compounds on HCV RNA replication. Briefly, using the HCV strain 1B sequence described in the Lohmann paper (Assession number:AJ238799), an HCV cDNA was generated encoding the 5′ internal ribosome entry site (IRES), the neomycin resistance gene, the EMCV (encephalomyocarditis viurs)-IRES and the HCV nonstructural proteins, NS3-NS5B, and 3′ non-translated region (NTR). In vitro transcripts of the cDNA were transfected into the human hepatoma cell line, Huh7. […] Resulting cell lines were characterized for positive and negative strand RNA production and protein production over time.
Huh7 cells, constitutively expressing the HCV replicon, were grown in Dulbecco's Modified Eagle Media (DMEM) containing 10% Fetal calf serum (FCS) and 1 mg/ml G418 (Gibco-BRL). Cells were seeded the night before (1.5×10^4 cells/well) in 96-well tissue-culture sterile plates. Compound and no compound controls were prepared in DMEM containing 4% FCS, 1:100 Penicillin/Streptomysin, 1:100 L-glutamine and 5% DMSO in the dilution plate (0.5% DMSO final concentration in the assay). Compound/DMSO mixes were added to the cells and incubated for 4 days at 37° C. After 4 days, plates were rinsed thoroughly with Phosphate-Buffered Saline (PBS) (3 times 150 μl). The cells were lysed with 25 μl of a lysis assay reagent containing the FRET peptide (RET S1, as described for the in vitro enzyme assay). The lysis assay reagent was made from 5× cell Luciferase cell culture lysis reagent (Promega #E153A) diluted to 1× with distilled water, NaCl added to 150 mM final, the FRET peptide diluted to 10 μM final from a 2 mM stock in 100% DMSO. The plate was then placed into the Cytofluor 4000 instrument which had been set to 340 nm excitation/490 emission, automatic mode for 21 cycles and the plate read in a kinetic mode. EC50 determinations were carried out as described for the IC50 determinations.
As a secondary assay, EC50 determinations from the replicon FRET assay were confirmed in a quantitative RNA assay. Cells were lyzed using the Rneasy kit (Qiagen). Purified total RNA was normalized using RiboGreen (Jones L J, Yue S T, Cheung C Y, Singer V L, Anal. Chem., 265(2):368–74 (1998)) and relative quantitation of HCV RNA expression assessed using the Taqman procedure (Kolykhalov A A, Mihalik K, Feinstone S M, Rice C M, Journal of Virology 74, 2046–2051 (2000)) and the Platinum Quantitative RT-PCR Thermoscript One-Step kit (Invitrogen cat # 11731-015). Briefly, RNA made to a volume of 5 μl (<1 ng) was added to a 20 μl Ready-Mix containing the following: 1.25× Thermoscript reaction mix (containing Magnesium Sulfate and 2-deoxynucleoside 5′-triphosphates (dNTPs)), 3 mM dNTPs, 200 nM forward primer (sequence: 5′-[…]-3′), 600 nM reverse primer (5′-[…]-3′), 100 nM probe (5′-6-FAM-[…]-BHQ-1-3′)(FAM: Fluorescein-aminohexyl amidite; BHQ: Black Hole Quencher), 1 μM Rbx reference dye (Invitrogen cat # 12223-012) and Thermoscript Plus Platinum Taq polymerase mixture. All primers were designed with ABI Prism 7700 software and obtained from Biosearch Technologies, Novato, Calif. Samples containing known concentrations of HCV RNA transcript were run as standards. Using the following cycling protocol (50° C., 30 min; 95° C., 5 min; 40 cycles of 95° C., 15 sec, 60° C., 1 min), HCV RNA expression was quantitated as described in the Perkin Elmer manual using the ABI Prism 7700 Sequence Detector.
The luciferase reporter assay was also used to confirm compound potency in the replicon. Utilization of a replicon luciferase reporter assay was first described by Krieger et al (Krieger N, Lohmann V, and Bartenschlager R, J. Virol. 75(10):4614–4624 (2001)). […]

[3] = HCV NS3/4A protease enzyme assay, read-out: IC50 range
[4] = read-out: IC50 range, HCV NS3/4A protease enzyme assay

Question: `C=CC1C[C@]1(NC(=O)[C@@H]1C[C@@H](OC(=O)Nc2cc(C)ccc2F)CN1C(=O)[C@@H](NC(=O)OC(C)(C)C)C(C)(C)C)C(=O)NS(=O)(=O)C1CC1` (stereo partly drawn) [Compound 21, BocNH-P3(t-BuGly)-P2(Hyp(O—CO(NH—(2-fluoro-5-methyl-phenyl))))-P1(1R,2S VinylAcca)—CONHSO2Cyclopropane] was tested. Which IC50 [1, 3] did it give?
Answer: < 100 nM

Question: What about the EC50 [2] of the same compound?
Answer: 100 to 1000 nM

Question: How did the IC50 [1, 4] turn out when `C=CC1C[C@]1(NC(=O)[C@@H]1C[C@@H](OC(=O)Nc2cc(Cl)cc(Cl)c2)CN1C(=O)[C@@H](NC(=O)OC(C)(C)C)C(C)(C)C)C(=O)NS(=O)(=O)C1CC1` (stereo partly drawn) [Compound 23, BocNH-P3(t-BuGly)-P2(Hyp(O—CO(NH—(3,5-dichloro-phenyl))))-P1(1R,2S VinylAcca)—CONHSO2Cyclopropane] was run?
Answer: < 100 nM

Question: And the EC50 [2]?
Answer: 100 to 1000 nM

Question: How did the IC50 [1, 3] turn out when `C=CC1C[C@]1(NC(=O)[C@@H]1C[C@@H](OC(=O)NCc2cccc(F)c2)CN1C(=O)[C@@H](NC(=O)OC(C)(C)C)C(C)(C)C)C(=O)NS(=O)(=O)C1CC1` (stereo partly drawn) [Compound 24, BocNH-P3(t-BuGly)-P2(Hyp(O—CO(NH—(3-fluoro-benzyl))))-P1(1R,2S VinylAcca)—CONHSO2Cyclopropane] was run?
Answer: 100 to 1000 nM

Question: What about the EC50 [2] of the same compound?
Answer: > 10000 nM

Question: For `C=CC1C[C@]1(NC(=O)[C@@H]1C[C@@H](OC(=O)Nc2cccc(CC)c2)CN1C(=O)[C@@H](NC(=O)OC(C)(C)C)C(C)(C)C)C(=O)NS(=O)(=O)C1CC1` (stereo partly drawn) [Compound 25, BocNH-P3(t-BuGly)-P2(Hyp(O—CO(NH—(3-ethyl-phenyl))))-P1(1R,2S VinylAcca)—CONHSO2Cyclopropane], which IC50 [1, 3] is on record?
Answer: < 100 nM

Question: And the EC50 [2]?
Answer: 1000 to 10000 nM

Question: `C=CC1C[C@]1(NC(=O)[C@@H]1C[C@@H](OC(=O)NCc2ccccc2Cl)CN1C(=O)[C@@H](NC(=O)OC(C)(C)C)C(C)(C)C)C(=O)NS(=O)(=O)C1CC1` (stereo partly drawn) [Compound 26, BocNH-P3(t-BuGly)-P2(Hyp(O—CO(NH—(2-chloro-benzyl))))-P1(1R,2S VinylAcca)—CONHSO2Cyclopropane] was tested. Which IC50 [1, 3] did it give?
Answer: < 100 nM

Question: And the EC50 [2]?
Answer: 1000 to 10000 nM

Question: For `C=CC1C[C@]1(NC(=O)[C@@H]1C[C@@H](OC(=O)Nc2cccc(OC)c2)CN1C(=O)[C@@H](NC(=O)OC(C)(C)C)C(C)(C)C)C(=O)NS(=O)(=O)C1CC1` (stereo partly drawn) [Compound 27, BocNH-P3(t-BuGly)-P2(Hyp(O—CO(NH—(3-methoxy-phenyl))))-P1(1R,2S VinylAcca)—CONHSO2Cyclopropane], which IC50 [1, 3] is on record?
Answer: < 100 nM

Question: What about the EC50 [2] of the same compound?
Answer: 1000 to 10000 nM

Question: Which results are given for `C=CC1C[C@]1(NC(=O)[C@@H]1C[C@@H](OC(=O)Nc2cccc(C(=O)OCC)c2)CN1C(=O)[C@@H](NC(=O)OC(C)(C)C)C(C)(C)C)C(=O)NS(=O)(=O)C1CC1` (stereo partly drawn) [Compound 28, BocNH-P3(t-BuGly)-P2(Hyp(O—CO(NH—(3-benzoic acid ethyl ester))))-P1(1R,2S VinylAcca)—CONHSO2Cyclopropane]?
Answer: IC50 [1, 3]: 100 to 1000 nM; EC50 [2]: 1000 to 10000 nM

Question: What does the source list for `C=CC1C[C@]1(NC(=O)[C@@H]1C[C@@H](OC(=O)Nc2ccccc2SC)CN1C(=O)[C@@H](NC(=O)OC(C)(C)C)C(C)(C)C)C(=O)NS(=O)(=O)C1CC1` (stereo partly drawn) [Compound 29, BocNH-P3(t-BuGly)-P2(Hyp(O—CO(NH—(2-methylsulfanyl-phenyl))))-P1(1R,2S VinylAcca)—CONHSO2Cyclopropane]?
Answer: IC50 [1, 3]: < 100 nM; EC50 [2]: 100 to 1000 nM

Question: With `C=CC1C[C@]1(NC(=O)[C@@H]1C[C@@H](OC(=O)Nc2ccccc2C(=O)OC)CN1C(=O)[C@@H](NC(=O)OC(C)(C)C)C(C)(C)C)C(=O)NS(=O)(=O)C1CC1` (stereo partly drawn) [Compound 30, BocNH-P3(t-BuGly)-P2(Hyp(O—CO(NH—(2-benzoic acid methyl ester))))-P1(1R,2S VinylAcca)—CONHSO2Cyclopropane] as the compound, how does the IC50 [1, 3] read?
Answer: < 100 nM

Question: What about the EC50 [2] of the same compound?
Answer: < 100 nM

Question: Which IC50 [1, 3] does the source give for `C=CC1C[C@]1(NC(=O)[C@@H]1C[C@@H](OC(=O)Nc2cccc(Cl)c2Cl)CN1C(=O)[C@@H](NC(=O)OC(C)(C)C)C(C)(C)C)C(=O)NS(=O)(=O)C1CC1` (stereo partly drawn) [Compound 31, BocNH-P3(t-BuGly)-P2(Hyp(O—CO(NH—(2,3-dichloro-phenyl))))-P1(1R,2S VinylAcca)—CONHSO2Cyclopropane] here?
Answer: < 100 nM

Question: What about the EC50 [2] of the same compound?
Answer: 100 to 1000 nM

Question: For `C=CC1C[C@]1(NC(=O)[C@@H]1C[C@@H](OC(=O)n2c3ccccc3c3ccccc32)CN1C(=O)[C@@H](NC(=O)OC(C)(C)C)C(C)(C)C)C(=O)NS(=O)(=O)C1CC1` (stereo partly drawn) [Compound 32, BocNH-P3(t-BuGly)-P2(Hyp(O—CO(N-(9-carbazolyl))))-P1(1R,2S VinylAcca)—CONHSO2Cyclopropane], which IC50 [1, 3] is on record?
Answer: < 100 nM

Question: What about the EC50 [2] of the same compound?
Answer: < 100 nM

Question: Which IC50 [1, 3] does the source give for `C=CC1C[C@]1(NC(=O)[C@@H]1C[C@@H](OC(=O)Nc2ccccc2Br)CN1C(=O)[C@@H](NC(=O)OC(C)(C)C)C(C)(C)C)C(=O)NS(=O)(=O)C1CC1` (stereo partly drawn) [Compound 33, BocNH-P3(t-BuGly)-P2(Hyp(O—CO(NH—(2-bromo-phenyl))))-P1(1R,2S VinylAcca)—CONHSO2Cyclopropane] here?
Answer: 100 to 1000 nM

Question: What about the EC50 [2] of the same compound?
Answer: 100 to 1000 nM

Question: How did the IC50 [1, 3] turn out when `C=CC1C[C@]1(NC(=O)[C@@H]1C[C@@H](OC(=O)Nc2cccc(C(F)(F)F)c2)CN1C(=O)[C@@H](NC(=O)OC(C)(C)C)C(C)(C)C)C(=O)NS(=O)(=O)C1CC1` (stereo partly drawn) [Compound 34, BocNH-P3(t-BuGly)-P2(Hyp(O—CO(NH—(3-trifluoromethyl-phenyl))))-P1(1R,2S VinylAcca)—CONHSO2Cyclopropane] was run?
Answer: 100 to 1000 nM

Question: And the EC50 [2]?
Answer: 1000 to 10000 nM

Question: Which IC50 [1, 3] does the source give for `C=CC1C[C@]1(NC(=O)[C@@H]1C[C@@H](OC(=O)Nc2nc(Cl)c(Cl)nc2C(=O)OC)CN1C(=O)[C@@H](NC(=O)OC(C)(C)C)C(C)(C)C)C(=O)NS(=O)(=O)C1CC1` (stereo partly drawn) [Compound 35, BocNH-P3(t-BuGly)-P2(Hyp(O—CO(NH-3-(5,6-Dichloro-pyrazine-2-carboxylic acid methyl ester))))-P1(1R,2S VinylAcca)—CONHSO2Cyclopropane] here?
Answer: < 100 nM

Question: What about the EC50 [2] of the same compound?
Answer: > 10000 nM

Question: With `C=CC1C[C@]1(NC(=O)[C@@H]1C[C@@H](OC(=O)N2CCc3ccccc32)CN1C(=O)[C@@H](NC(=O)OC(C)(C)C)C(C)(C)C)C(=O)NS(=O)(=O)C1CC1` (stereo partly drawn) [Compound 36, BocNH-P3(t-BuGly)-P2(Hyp(O—CO(N-(1-indolinyl))))-P1(1R,2S VinylAcca)—CONHSO2Cyclopropane] as the compound, how does the IC50 [1, 3] read?
Answer: < 100 nM

Question: And the EC50 [2]?
Answer: 100 to 1000 nM

Question: Which results are given for `C=CC1C[C@]1(NC(=O)[C@@H]1C[C@@H](OC(=O)Nc2cccc(SC)c2)CN1C(=O)[C@@H](NC(=O)OC(C)(C)C)C(C)(C)C)C(=O)NS(=O)(=O)C1CC1` (stereo partly drawn) [Compound 37, BocNH-P3(t-BuGly)-P2(Hyp(O—CO(NH—(3-methylsulfanyl-phenyl))))-P1(1R,2S VinylAcca)—CONHSO2Cyclopropane]?
Answer: IC50 [1, 3]: < 100 nM; EC50 [2]: 1000 to 10000 nM

Question: Which results are given for `C=CC1C[C@]1(NC(=O)[C@@H]1C[C@@H](OC(=O)Nc2cc(C)ccc2Cl)CN1C(=O)[C@@H](NC(=O)OC(C)(C)C)C(C)(C)C)C(=O)NS(=O)(=O)C1CC1` (stereo partly drawn) [Compound 38, BocNH-P3(t-BuGly)-P2(Hyp(O—CO(NH—(2-chloro-5-methyl-phenyl))))-P1(1R,2S VinylAcca)—CONHSO2Cyclopropane]?
Answer: IC50 [1, 3]: < 100 nM; EC50 [2]: 100 to 1000 nM

Question: What does the source list for `C=CC1C[C@]1(NC(=O)[C@@H]1C[C@@H](OC(=O)N(c2ccccc2)c2ccccc2)CN1C(=O)[C@@H](NC(=O)OC(C)(C)C)C(C)(C)C)C(=O)NS(=O)(=O)C1CC1` (stereo partly drawn) [Compound 39, BocNH-P3(t-BuGly)-P2(Hyp(O—CO(N,N-diphenyl)))-P1(1R,2S VinylAcca)—CONHSO2Cyclopropane]?
Answer: IC50 [1, 4]: < 100 nM; EC50 [2]: 100 to 1000 nM
